Measurements published in EP1214299B1, “MUSCARINIC ANTAGONISTS” (SCHERING CORPORATION, priority 1999, dated 2001).
Read-outs that look alike come from different tables or passages of the source.

Key:
Acetylcholine (ACh) = test: Microdialysis (ACh in striatal microdialysate); type: in vivo, male Sprague-Dawley Rats; details: dose of 10 mg/kg PO; ACh in rat striatum microdialysate
Description: The skull was exposed and drilled through to the dura at a point 0.2 mm anterior and 3.0 mm lateral to the bregma. At these coordinates, a guide cannula was positioned at the outer edge of the dura through the drilled opening, lowered perpendicularly to a depth of 2.5 mm, and permanent!y secured with dental cement to bone screws. Following the surgery, rats were given ampicillin (40 mg/kg, ip) and individually housed in modified cages. A recovery period of approximately 3 to 7 days was allowed before the microdialysis procedure was undertaken. • Microdialysis: All of the equipment and instrumentation used to conduct in vivo microdialysis was obtained from Bioanalytical Systems, Inc. (BAS). The microdialysis procedure involved the insertion through the guide cannula of a thin, needle-like perfusable probe (CMA/12,3 mm x 0.5 mm) to a depth of 3 mm in striatum beyond the end of the guide. The probe was connected beforehand with tubing to a microinjection pump (CMA/ 100). Rats were collared, tethered, and, following probe insertion, were placed in a large, clear, plexiglass bowl with litter material and access to food and water. The probe was perfused at 2 µl/min with Ringer's buffer (NaCl 147 mM; KCl 3.0 mM; CaCl2 1.2 mM; MgCl2 1.0 mM) containing 5.5 mM glucose, 0.2 mM L-ascorbate, and 1 µM neostigmine bromide at pH 7.4). To achieve stable baseline readings, microdialysis was allowed to proceed for 90 minutes prior to the collection of fractions. Fractions (20 µl) were obtained at 10 minute intervals over a 3 hour period using a refrigerated collector (CMA/170 or 200). Four to five baseline fractions were collected, following which the drug or combination of drugs to be tested was administered to the animal. Upon completion of the collection, each rat was autopsied to determine accuracy of probe placement. • Acetylcholine (ACh) analysis: The concentration of ACh in collected samples of microdialysate was determined using HPLC/electrochemical detection. Samples were auto-injected (Waters 712 Refrigerated Sample Processor) onto a polymeric analytical HPLC column (BAS, MF-6150) and eluted with 50 mM Na2HPO4, pH 8.5. To prevent bacterial growth, Kathon CG reagent (0.005%) (BAS) was included in the mobile phase. Eluent from the analytical column, containing separated ACh and choline, was then immediately passed through an immobilized enzyme reactor cartridge (BAS, MF-6151) coupled to the column outlet. The reactor contained both acetylcholinesterase and choline oxidase covalently bound to a polymeric backbone. […] Data acquisition was carried out using an IBM Model 70 computer equipped with a microchannel IEEE board. Integration and quantification of peaks were accomplished using "Maxima" chromatography software (Waters Corporation). Total run time per sample was 11 minutes at a flow rate of 1 ml/min. Retention times for acetylcholine and choline were 6.5 and 7.8 minutes, respectively. To monitor and correct for possible changes in detector sensitivity during chromatography, ACh standards were included at the beginning, middle and end of each sample queue.
Increases in ACh levels are consistent with presynaptic m2 receptor antagonism.
Data for representative and/or preferred compounds of the present invention are as follows (compounds were administered at a dose of 10 mg/kg PO): […]

[1] = biological target: human m1 muscarinic receptor (Homo sapiens, UniProt P11229); test: biochemical; type: binding
Chain of human m1 muscarinic receptor (P11229 whole entry): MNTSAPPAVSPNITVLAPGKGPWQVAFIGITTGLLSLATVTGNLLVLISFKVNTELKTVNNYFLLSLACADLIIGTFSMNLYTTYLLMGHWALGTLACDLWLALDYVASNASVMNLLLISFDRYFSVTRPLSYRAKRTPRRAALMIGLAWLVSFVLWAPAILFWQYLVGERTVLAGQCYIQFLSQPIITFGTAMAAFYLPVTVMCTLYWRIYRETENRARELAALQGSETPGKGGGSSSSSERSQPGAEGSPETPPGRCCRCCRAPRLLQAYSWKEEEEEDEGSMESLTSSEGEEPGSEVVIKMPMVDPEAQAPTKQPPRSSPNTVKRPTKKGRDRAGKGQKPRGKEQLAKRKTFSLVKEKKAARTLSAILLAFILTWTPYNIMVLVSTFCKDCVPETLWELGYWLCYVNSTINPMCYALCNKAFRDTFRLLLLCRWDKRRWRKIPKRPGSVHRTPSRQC

[2] = biological target: human m4 muscarinic receptor (Homo sapiens, UniProt P08173); test: biochemical; type: binding
Chain of human m4 muscarinic receptor (P08173 whole entry): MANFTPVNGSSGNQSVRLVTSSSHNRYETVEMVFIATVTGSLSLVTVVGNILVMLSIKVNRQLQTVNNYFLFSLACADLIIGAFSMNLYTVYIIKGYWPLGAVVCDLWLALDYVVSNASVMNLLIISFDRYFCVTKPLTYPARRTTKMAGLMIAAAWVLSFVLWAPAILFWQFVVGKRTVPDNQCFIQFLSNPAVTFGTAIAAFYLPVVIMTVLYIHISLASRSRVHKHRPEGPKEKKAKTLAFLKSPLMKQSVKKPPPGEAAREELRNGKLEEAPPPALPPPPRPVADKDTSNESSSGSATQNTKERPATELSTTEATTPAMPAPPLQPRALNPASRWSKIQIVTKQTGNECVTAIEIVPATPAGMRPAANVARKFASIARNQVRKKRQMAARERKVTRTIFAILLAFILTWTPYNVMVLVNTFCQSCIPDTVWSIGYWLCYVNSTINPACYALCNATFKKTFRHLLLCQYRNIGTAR

m5 = biological target: T1, m5 (Homo sapiens, UniProt P08912); details: read-out: m5 Ki
T1 sequence (P08912 1-532): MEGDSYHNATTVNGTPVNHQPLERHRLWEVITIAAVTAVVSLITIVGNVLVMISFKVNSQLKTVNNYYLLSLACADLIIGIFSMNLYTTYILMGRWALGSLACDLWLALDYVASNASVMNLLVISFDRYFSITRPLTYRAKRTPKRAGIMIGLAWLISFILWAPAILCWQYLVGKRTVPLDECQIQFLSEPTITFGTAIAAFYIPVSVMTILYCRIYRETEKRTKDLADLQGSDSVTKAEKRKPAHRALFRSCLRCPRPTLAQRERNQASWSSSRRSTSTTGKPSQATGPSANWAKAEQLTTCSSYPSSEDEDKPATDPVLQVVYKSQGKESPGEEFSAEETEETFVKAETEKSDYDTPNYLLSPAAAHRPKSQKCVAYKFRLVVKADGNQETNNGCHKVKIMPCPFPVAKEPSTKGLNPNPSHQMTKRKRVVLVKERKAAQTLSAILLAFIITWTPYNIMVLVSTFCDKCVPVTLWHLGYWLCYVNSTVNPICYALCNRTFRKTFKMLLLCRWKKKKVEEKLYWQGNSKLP

[3] = biological target: human m3 muscarinic receptor (Homo sapiens, UniProt P20309); details: read-out: m3 Ki; membranes from stably transfected CHO cell lines, 3H-QNB
Chain of human m3 muscarinic receptor (P20309 whole entry): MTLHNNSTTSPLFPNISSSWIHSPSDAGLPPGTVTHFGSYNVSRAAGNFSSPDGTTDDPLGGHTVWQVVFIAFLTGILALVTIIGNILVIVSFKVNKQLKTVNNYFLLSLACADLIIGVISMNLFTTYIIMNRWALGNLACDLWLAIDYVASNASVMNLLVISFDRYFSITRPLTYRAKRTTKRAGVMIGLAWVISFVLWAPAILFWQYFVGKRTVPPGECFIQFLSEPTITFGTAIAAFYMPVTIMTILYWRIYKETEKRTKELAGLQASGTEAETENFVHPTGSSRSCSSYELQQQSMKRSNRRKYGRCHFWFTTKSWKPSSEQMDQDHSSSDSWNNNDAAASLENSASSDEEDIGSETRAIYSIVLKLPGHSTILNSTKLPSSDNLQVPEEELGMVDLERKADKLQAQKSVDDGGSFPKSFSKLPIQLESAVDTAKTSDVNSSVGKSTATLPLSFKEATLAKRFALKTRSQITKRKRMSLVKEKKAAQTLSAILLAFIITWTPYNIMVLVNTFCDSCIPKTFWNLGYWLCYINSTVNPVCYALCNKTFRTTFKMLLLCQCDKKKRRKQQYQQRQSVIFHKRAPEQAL

## COc1ccc(S(=O)(=O)c2ccc(C3(C4CCN(C5CCN(C(=O)c6cccc(C)c6N)CC5)CC4)OCCO3)cc2)cc1 [Example 2]
Acetylcholine (ACh)
  Microdialysis Maximum % of baseline: 194 % of baseline

## Nc1ccccc1C(=O)N1CCC(N2CCC(Cc3ccc(S(=O)(=O)c4cccc(Cl)c4)cc3)CC2)CC1 [Example 7A]
[1]
  Ki: 658 nM
Acetylcholine (ACh)
  Microdialysis Maximum % of baseline: 150 % of baseline
[2]
  Ki: 33.3 nM

## Nc1cc(F)ccc1C(=O)N1CCC(N2CCC(C3(c4ccc(S(=O)(=O)c5cccc(Cl)c5)cc4)OCCO3)CC2)CC1 [Example 3E]
Acetylcholine (ACh)
  Microdialysis Maximum % of baseline: 188 % of baseline

## COc1ccc(S(=O)(=O)c2ccc(C3(C4CCN(C5CCN(C(=O)c6cccc(F)c6N)CC5)CC4)OCCO3)cc2)cc1 [Example 2F]
Acetylcholine (ACh)
  Microdialysis Maximum % of baseline: 186 % of baseline

## Cc1cccc(C(=O)N2CCC(N3CCC(Cc4ccc(S(=O)(=O)c5cccc(Cl)c5)cc4)CC3)CC2)c1N [Example 7]
[1]; membranes from stably transfected CHO cell lines, 3H-QNB, read-out: m1 Ki
  Ki: 650 nM
m5
  Ki: 84.5 nM
Acetylcholine (ACh)
  Microdialysis Maximum % of baseline: 180 % of baseline
[3]
  Ki: 698 nM
[2]; membranes from stably transfected CHO cell lines, 3H-QNB, read-out: m4 Ki
  Ki: 61.4 nM
